pIC50: −log10 of the molar value.
Columns and labels:
[1] = system: B16; assay: Cytotoxicity against mouse B16 cells after 48 hrs by MTT assay; type: functional, cell-based; conditions: B16, 48 h
[2] = Antivascular activity against human EAhy926 cells assessed as rounding up morphology after 2 hrs by microscopic analysis; type: functional; conditions: EA.hy 926, 2 h, read-out: MEC
[3] = molecular target: Tubulin; assay: Inhibition of tubulin (unknown origin) assessed as inhibition of GTP-induced polymerization incubated for 45 mins prior to GTP-addition measured after 2 hrs by DAPI-staining based fluorimetric analysis; type: protein-complex assay, Homo sapiens

Row | Structure (SMILES) | pIC50 [1] | minimal effective concentration [2] [µM] | pIC50 [3]
1 | COc1ccc(/C=C\c2cc(OC)c(OC)c(OC)c2)cc1O [COMBRETASTATIN A4] | 8.52 | 0.006 | 
2 | COc1ccc(C2CC2c2cc(OC)c(OC)c(OC)c2)cc1N (racemic) | 6.54 | 0.12 | 5.55
3 | COc1cc(C2CC2/C=C/c2ccccc2)cc(OC)c1OC (racemic) | 6.21 | 0.5 | 5.74
4 | COc1cc([C@@H]2C[C@@H]2/C=C/c2ccccc2)cc(OC)c1OC | 6.24 | 0.5 | 5.89
5 | COc1ccc(C2CC2c2cc(OC)c(OC)c(OC)c2)cc1O (racemic) | 6.49 | 0.12 | 6.00
6 | COc1ccc([C@H]2C[C@H]2c2cc(OC)c(OC)c(OC)c2)cc1O | 6.28 | 0.5 | 5.17
7 | COc1ccc(C2CC2c2cc(OC)c(OC)c(OC)c2)cc1[N+](=O)[O-] (racemic) | 4.81 | 3.13 | 4.58
8 | COc1cc([C@H]2C[C@H]2/C=C/c2ccccc2)cc(OC)c1OC | 5.56 | 3.13 | 5.35
9 | COc1ccc([C@@H]2C[C@@H]2c2cc(OC)c(OC)c(OC)c2)cc1O | 6.52 | 0.12 | 6.52

Source: ChEMBL document CHEMBL2321649 (Bioorg Med Chem, 2013)
